Laboratory results reported in US6972296B2, “Carboxylic acid derivatives that inhibit the binding of integrins to their receptors” (Encysive Pharmaceuticals Inc., priority 1999, dated 2005).

Target: T1, α4β1 integrin (Homo sapiens, UniProt P05556+P13612)
T1 construct: endogenous in cells; host or cells: Ramos cells
Experiment: Adhesion of calcein-labeled Ramos cells to CS1 (fibronectin) peptide conjugated ovalbumin
Format: cell-based
Conditions: Ramos cell adhesion to CS1 conjugated ovalbumin
Procedure: A procedure in which a 26-amino acid peptide containing the CS1 sequence of fibronectin with an N-terminal Cys ([…]) was coupled to maleimide activated ovalbumin was used to determine the efficacy of the compounds synthesized. Bovine serum albumin (BSA) and CS1 conjugated ovalbumin were coated onto 96-well polystyrene plates at 0.5 μg/ml in TBS (50 mM TRIS, pH 7.5; 150 mM NaCl) at 4° C. for 16 hours. The plates were washed three times with TBS and blocked with TBS containing 3% BSA at room temperature for 4 hours. Blocked plates were washed three times in binding buffer (TBS; 1 mM MgCl2; 1 mM CaCl2; 1 mM MnCl2) prior to assay. Ramos cells fluorescently labeled with calcein AM were resuspended in binding buffer (10^7 cells/ml) and diluted 1:2 with same buffer with or without compound. 100 μM of compound was added. The cells were added immediately to the wells (2.5×10^5 cells/well) and incubated for 30 minutes at 37° C. Following three washes with binding buffer, adherent cells were lysed and quantitated using a fluorometer. IC50 is defined as the dose required to give 50% inhibition, measured in μM for Tables 2 and 4. The lower the IC50 value and the greater the percentage of inhibition, the more efficient the compound is at prevention of cell adhesion.

[1] = Table 5, dose required to give 50% inhibition
[2] = Table 7, dose required to give 50% inhibition

T1 sequence (P13612 34-1032): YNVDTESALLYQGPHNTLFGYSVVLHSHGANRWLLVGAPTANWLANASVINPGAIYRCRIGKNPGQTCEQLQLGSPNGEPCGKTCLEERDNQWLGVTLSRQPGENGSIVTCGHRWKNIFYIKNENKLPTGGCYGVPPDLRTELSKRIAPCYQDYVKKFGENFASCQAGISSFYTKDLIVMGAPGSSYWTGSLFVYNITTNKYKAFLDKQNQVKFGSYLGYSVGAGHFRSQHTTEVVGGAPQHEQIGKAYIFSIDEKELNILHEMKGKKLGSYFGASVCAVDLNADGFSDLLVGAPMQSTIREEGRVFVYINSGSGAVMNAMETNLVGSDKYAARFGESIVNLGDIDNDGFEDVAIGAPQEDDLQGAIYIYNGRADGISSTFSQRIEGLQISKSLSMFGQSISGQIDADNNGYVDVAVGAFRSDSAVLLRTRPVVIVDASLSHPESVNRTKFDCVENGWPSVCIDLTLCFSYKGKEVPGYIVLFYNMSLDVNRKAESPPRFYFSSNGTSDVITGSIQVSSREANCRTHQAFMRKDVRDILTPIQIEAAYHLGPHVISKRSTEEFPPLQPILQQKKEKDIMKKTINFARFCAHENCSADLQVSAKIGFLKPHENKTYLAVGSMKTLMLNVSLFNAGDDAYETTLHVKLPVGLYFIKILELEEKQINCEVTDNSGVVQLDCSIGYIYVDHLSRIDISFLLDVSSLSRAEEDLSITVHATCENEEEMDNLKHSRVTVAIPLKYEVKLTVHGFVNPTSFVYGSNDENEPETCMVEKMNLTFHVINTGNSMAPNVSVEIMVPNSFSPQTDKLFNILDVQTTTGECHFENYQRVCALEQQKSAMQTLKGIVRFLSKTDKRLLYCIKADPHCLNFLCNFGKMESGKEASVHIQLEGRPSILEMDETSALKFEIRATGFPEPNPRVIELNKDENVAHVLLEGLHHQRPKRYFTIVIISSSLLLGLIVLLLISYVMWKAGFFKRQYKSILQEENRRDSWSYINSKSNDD
T1 sequence (P05556 21-798): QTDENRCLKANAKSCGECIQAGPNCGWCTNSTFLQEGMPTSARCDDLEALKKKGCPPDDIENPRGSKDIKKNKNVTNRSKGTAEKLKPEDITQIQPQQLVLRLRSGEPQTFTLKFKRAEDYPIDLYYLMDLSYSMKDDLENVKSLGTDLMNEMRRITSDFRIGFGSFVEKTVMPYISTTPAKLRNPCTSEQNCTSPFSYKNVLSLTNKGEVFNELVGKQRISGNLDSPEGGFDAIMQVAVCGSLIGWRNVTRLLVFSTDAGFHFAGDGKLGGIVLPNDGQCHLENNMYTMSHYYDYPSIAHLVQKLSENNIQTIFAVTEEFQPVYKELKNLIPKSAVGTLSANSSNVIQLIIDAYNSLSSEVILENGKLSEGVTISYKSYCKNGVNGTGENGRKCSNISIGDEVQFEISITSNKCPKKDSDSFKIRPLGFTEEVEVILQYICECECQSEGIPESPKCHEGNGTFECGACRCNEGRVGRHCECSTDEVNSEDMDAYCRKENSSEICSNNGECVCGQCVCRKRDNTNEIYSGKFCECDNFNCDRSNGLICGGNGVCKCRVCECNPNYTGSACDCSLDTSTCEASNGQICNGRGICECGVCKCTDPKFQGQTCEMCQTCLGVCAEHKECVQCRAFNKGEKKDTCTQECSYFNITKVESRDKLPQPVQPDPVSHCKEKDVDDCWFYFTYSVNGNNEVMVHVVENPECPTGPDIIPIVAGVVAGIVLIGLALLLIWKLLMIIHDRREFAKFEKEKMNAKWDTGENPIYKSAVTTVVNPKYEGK

IC50 [1] | IC50 [2] | Compound | also measured
20 nM |  | CCCc1cn(Cc2ccccc2Cl)c(=O)c(NC(=O)N[C@@H](CC(=O)O)c2ccc(C)cc2)c1O [(3S)-3-[({[1-(2-chlorobenzyl)-4-hydroxy-2-oxo-5-propyl-1,2-dihydropyridin-3-yl]amino}carbonyl)amino]-3-(4-methylphenyl)propanoic acid] | 
 | 3 nM | COc1ccc([C@H](CC(=O)O)NC(=O)Nc2c(O)c3c(n(Cc4c(C)cccc4Cl)c2=O)CCC3)cc1F | 
 | 2000 nM | COc1ccn(Cc2ccccc2Cl)c(=O)c1N(C)C(=O)N[C@@H](CC(=O)O)c1ccc(C)cc1 | 
 | 9 nM | COc1ccc([C@H](CC(=O)O)NC(=O)Nc2c(O)c(C)cn(Cc3ccccc3Cl)c2=O)cc1C | 
 | 22 nM | CCC(CC)Oc1cccc([C@H](CC(=O)O)NC(=O)Nc2c(O)c3c(n(Cc4c(C)cccc4Cl)c2=O)CCC3)c1 | 
90 nM |  | COc1ccc(Cl)c(Cn2cccc(NC(=O)N[C@@H](CC(=O)O)c3ccc(C)cc3)c2=O)c1 | 
 | 4 nM | Cc1cccc(Cl)c1Cn1c2c(c(O)c(NC(=O)N[C@@H](CC(=O)O)c3cccc(OC4CC4)c3)c1=O)CCC2 | 
 |  | Cc1cc([C@H](CC(=O)O)NC(=O)Nc2cccn(Cc3ccccc3Cl)c2=O)ccc1O | IC50 (Table 4, 30 minutes at 37° C.): 70 nM
 |  | CCOc1cc(OCC)cc([C@H](CC(=O)O)NC(=O)Nc2c(O)c(C)cn(Cc3ccccc3Cl)c2=O)c1 | IC50 (Table 6, 30 minutes at 37° C.): 3 nM
 |  | O=C(O)C[C@H](NC(=O)Nc1c(O)c2c(n(Cc3ccccc3Cl)c1=O)CCC2)c1cccc(OCC(F)(F)F)c1 | IC50 (Table 6, 30 minutes at 37° C.): 30 nM
 | 4 nM | O=C(O)C[C@H](NC(=O)Nc1c(O)c2c(n(Cc3ccccc3Cl)c1=O)CCC2)c1cccc(C(F)F)c1 | 
 | 15 nM | CCc1ccc([C@H](CC(=O)O)NC(=O)Nc2c(O)c3c(n(Cc4c(C)cccc4Cl)c2=O)CCC3)cc1 | 
 |  | COc1ccc([C@H](CC(=O)O)NC(=O)Nc2cccn(Cc3ccccc3Br)c2=O)cc1C | IC50 (Table 4, 30 minutes at 37° C.): 200 nM
 | 6 nM | COCCOc1cccc(Cl)c1Cn1c2c(c(O)c(NC(=O)N[C@@H](CC(=O)O)c3ccc(C)cc3)c1=O)CCC2 | 
40 nM |  | CCCCCc1cn(Cc2ccccc2Cl)c(=O)c(NC(=O)N[C@@H](CC(=O)O)c2ccc(C)cc2)c1O | 
 | 15 nM | CCOc1ncc([C@H](CC(=O)O)NC(=O)Nc2c(O)c3c(n(Cc4ccccc4Cl)c2=O)CCC3)c(OCC)n1 | 
25 nM |  | Cc1ccc([C@H](CC(=O)O)NC(=O)Nc2c(O)ccn(Cc3ccc(OC(F)(F)F)cc3)c2=O)cc1 | 
30000 nM |  | Cc1ccc(C[C@@H](CC(=O)O)NC(=O)Nc2c(O)ccn(Cc3ccccc3Cl)c2=O)cc1 | 
 |  | Cc1ccc([C@H](CC(=O)O)NC(=O)Nc2c(O)c3c(n(Cc4ccc(Cl)cc4)c2=O)CCC3)cc1 | IC50 (Table 6, 30 minutes at 37° C.): 50 nM
100 nM |  | Cc1ccc([C@H](CC(=O)O)NC(=O)Nc2cccn(Cc3c(O)cccc3Cl)c2=O)cc1 | 

IC50 [1] | IC50 [2] | Compound | also measured
5 nM |  | COc1cccc(Cl)c1Cn1ccc(O)c(NC(=O)N[C@@H](CC(=O)O)c2cccc(C)c2)c1=O [(3S)-3-[({[1-(2-chloro-6-methoxybenzyl)-4-hydroxy-2-oxo-1,2-dihydropyridin-3-yl]amino}carbonyl)amino]-3-(3-methylphenyl)propanoic acid] | 
14 nM |  | Cc1ccc([C@H](CC(=O)O)NC(=O)Nc2c(O)ccn(Cc3cc(F)ccc3Cl)c2=O)cc1 | 
 | 27 nM | CCOc1cccc(-c2ccc([C@H](CC(=O)O)NC(=O)Nc3c(O)ccn(Cc4ccccc4Cl)c3=O)cc2)c1 | 
3 nM |  | CCOc1ccc([C@H](CC(=O)O)NC(=O)Nc2c(O)c(C)c(C)n(Cc3ccccc3Cl)c2=O)cc1OCC [(3S)-3-[({[1-(2-chlorobenzyl)-4-hydroxy-5,6-dimethyl-2-oxo-1,2-dihydropyridin-3-yl]amino}carbonyl)amino]-3-(3,4-diethoxyphenyl)propanoic acid] | 
20 nM |  | Cc1ccc([C@H](CC(=O)O)NC(=O)Nc2c(O)c(C)cn(Cc3ccc(S(C)(=O)=O)cc3)c2=O)cc1 | 
 |  | O=C(O)C[C@H](NC(=O)Nc1cccn(Cc2ccccc2Cl)c1=O)c1c(O)cccc1O | IC50 (Table 4, 30 minutes at 37° C.): 3000 nM
5 nM |  | COc1cc([C@H](CC(=O)O)NC(=O)Nc2c(O)ccn(Cc3ccccc3Cl)c2=O)cc2c1OCO2 [(3S)-3-[({[1-(2-chlorobenzyl)-4-hydroxy-2-oxo-1,2-dihydropyridin-3-yl]amino}carbonyl)amino]-3-(7-methoxy-1,3-benzodioxol-5-yl)propanoic acid] | 
 | 4 nM | Cc1cn(Cc2ccccc2Cl)c(=O)c(NC(=O)NC(CC(=O)O)c2ccco2)c1O (stereo not shown) | 
 |  | COc1ccn(Cc2ccccc2Cl)c(=O)c1NC(=O)N[C@@H](CC(=O)O)c1ccc(C)cc1 | IC50 (Table 3, 30 minutes at 37° C.): 20 nM
 | 22 nM | O=C(O)C[C@H](NC(=O)Nc1c(O)c2c(n(Cc3ccccc3Cl)c1=O)CCC2)c1cnc2ccccc2c1 | 
 | 5 nM | Cc1ccc([C@H](CC(=O)O)NC(=O)Nc2c(O)c(C)cn(Cc3cc(F)ccc3Cl)c2=O)cc1 | 
15 nM |  | Cc1ccc([C@H](CC(=O)O)NC(=O)Nc2c(O)ccn(Cc3cc(F)ccc3F)c2=O)cc1 | 
 | 5 nM | Cc1cccc([C@H](CC(=O)O)NC(=O)Nc2c(O)c3c(n(Cc4ccccc4Cl)c2=O)CCC3)c1 [(3S)-3-[({[1-(2-chlorobenzyl)-4-hydroxy-2-oxo-2,5,6,7-tetrahydro-1H-cyclopenta[b]pyridin-3-yl]amino}carbonyl)amino]-3-(3-methylphenyl)propanoic acid] | 
 |  | Cc1ccc([C@H](CC(=O)O)NC(=O)Nc2cccn(Cc3c(N)cccc3Cl)c2=O)cc1 | IC50 (Table 4, 30 minutes at 37° C.): 2000 nM
 |  | Cc1ccccc1NC(=O)Nc1ccc(CN2CCC[C@H](NC(=O)N[C@@H](CC(=O)O)c3ccc4c(c3)OCO4)C2=O)cc1 | IC50 (Table 2, 30 minutes at 37° C.): 0.3 nM
 |  | CCCc1cn(Cc2c(Cl)cccc2OC)c(=O)c(NC(=O)N[C@@H](CC(=O)O)c2ccc(C)c(OC)c2)c1O | IC50 (Table 6, 30 minutes at 37° C.): 15 nM
 |  | Cc1ccc([C@H](CC(=O)O)NC(=O)Nc2c(N3CCOCC3)ccn(Cc3ccccc3Cl)c2=O)cc1 | IC50 (Table 3, 30 minutes at 37° C.): 1 nM
 |  | Cc1ccc([C@H](CC(=O)O)NC(=O)Nc2c(O)ccn(Cc3cccc(S(C)(=O)=O)c3)c2=O)cc1 | IC50 (Table 6, 30 minutes at 37° C.): 25 nM
25 nM |  | CCc1c(O)c(NC(=O)N[C@@H](CC(=O)O)c2ccc(C)cc2)c(=O)n(Cc2ccccc2Cl)c1C | 
250 nM |  | Cc1ccc([C@H](CC(=O)O)NC(=O)Nc2cccn(Cc3cc(O)ccc3Cl)c2=O)cc1 | 

IC50 [1] | IC50 [2] | Compound | also measured
 | 5 nM | O=C(O)C[C@H](NC(=O)Nc1c(O)c2c(n(Cc3ccccc3Cl)c1=O)CCC2)c1cccc(OC(F)F)c1 [(3S)-3-{[({1-[(2-chlorophenyl)methyl]-4-hydroxy-2-oxo-2,5,6,7-tetrahydro-1H-cyclopenta[b]pyridin-3-yl}amino)carbonyl]amino}-3-{3-[(difluoromethyl)oxy]phenyl}propanoic acid] | 
 | 3 nM | COc1ccc([C@H](CC(=O)O)NC(=O)Nc2c(O)c3c(n(Cc4ccccc4Cl)c2=O)CCC3)cc1F | 
200 nM |  | O=C(O)CC(NC(=O)Nc1c(O)ccn(Cc2ccccc2Cl)c1=O)c1cccc2ccccc12 (stereo not shown) | 
 |  | O=C(O)C[C@H](NC(=O)Nc1cccc(NCc2cccs2)c1)c1ccc2c(c1)OCO2 | IC50 (Table 4, 30 minutes at 37° C.): 5000 nM
 | 3 nM | CCOc1cccc(Cl)c1Cn1c(C)cc(O)c(NC(=O)N[C@@H](CC(=O)O)c2cccc(OC(C)C)c2)c1=O [(3S)-3-[({[1-(2-chloro-6-ethoxybenzyl)-4-hydroxy-6-methyl-2-oxo-1,2-dihydropyridin-3-yl]amino}carbonyl)amino]-3-(3-isopropoxyphenyl)propanoic acid] | 
3 nM |  | Cc1ccc([C@H](CC(=O)O)NC(=O)Nc2c(O)c3c(n(Cc4ccccc4Cl)c2=O)CCC3)cc1 [(3S)-3-[({[1-(2-chlorobenzyl)-4-hydroxy-2-oxo-2,5,6,7-tetrahydro-1H-cyclopenta[b]pyridin-3-yl]amino}carbonyl)amino]-3-(4-methylphenyl)propanoic acid] | 
 |  | CCOc1ccc([C@H](CC(=O)O)NC(=O)Nc2c(O)c(C)cn(Cc3c(Cl)cccc3OC)c2=O)cc1OCC [(3S)-3-[({[1-(2-chloro-6-methoxybenzyl)-4-hydroxy-5-methyl-2-oxo-1,2-dihydropyridin-3-yl]amino}carbonyl)amino]-3-(3,4-diethoxyphenyl)propanoic acid] | IC50 (Table 6, 30 minutes at 37° C.): 2 nM
 | 6 nM | Cc1cn(Cc2ccccc2Cl)c(=O)c(NC(=O)N[C@@H](CC(=O)O)c2ccc(OC3CC3)cc2)c1O | 
 | 15 nM | C[C@H](CC(=O)O)NC(=O)Nc1c(O)c2c(n(Cc3ccccc3Cl)c1=O)CCC2 | 
 |  | CC(C)C[C@H](CC(=O)O)NC(=O)Nc1c(N2CCOCC2)ccn(Cc2ccccc2Cl)c1=O | IC50 (Table 4, 30 minutes at 37° C.): 100 nM
 | 267 nM | Cc1ccccc1[C@H](CC(=O)O)NC(=O)Nc1c(O)c(C)cn(Cc2ccccc2Cl)c1=O | 
 |  | O=C(O)CC(NC(=O)Nc1c(O)ccn(Cc2ccccc2Cl)c1=O)c1cc2ccccc2o1 (stereo not shown) | IC50 (Table 6, 30 minutes at 37° C.): 140 nM
 |  | COc1ccc2cc(C(CC(=O)O)NC(=O)Nc3c(O)c(C)cn(Cc4c(C)cccc4Cl)c3=O)ccc2c1 (stereo not shown) | IC50 (Table 6, 30 minutes at 37° C.): 35 nM
150 nM |  | Cc1ccc(C[C@H](CC(=O)O)NC(=O)Nc2c(O)ccn(Cc3ccccc3Cl)c2=O)cc1 | 
 |  | O=C(O)C[C@H](NC(=O)Nc1cccn(Cc2ccc(Cl)cc2)c1=O)c1ccc2c(c1)OCO2 | IC50 (Table 4, 30 minutes at 37° C.): 3000 nM
 | 15 nM | COc1ccccc1-c1cccc([C@H](CC(=O)O)NC(=O)Nc2c(O)c(C)cn(Cc3ccccc3Cl)c2=O)c1 | 
 |  | Cc1ccc([C@H](CC(=O)O)NC(=O)Nc2c(Nc3cc(C)no3)ccn(Cc3ccccc3Cl)c2=O)cc1 | IC50 (Table 3, 30 minutes at 37° C.): 15 nM
190 nM |  | C[C@H](CC(=O)O)NC(=O)Nc1c(O)ccn(Cc2ccccc2Cl)c1=O | 
